Experimental data as given in publication PMC11413853, “Discovery of VU6007496: Challenges in the Development of an M1 Positive Allosteric Modulator Backup Candidate” (ACS Chemical Neuroscience, 2024).
Read-outs that look alike come from different tables or passages of the source.

Legend:
[1] = Rat brain homogenate binding; assay type: in vitro ADME; settings: brain homogenate (1:3 brain:DPBS, w/w), pH 7.4, read-out: fu,brain (r)
Experimental: Plasma protein binding and Brain homogenate binding: Determination of fraction unbound (f u) in plasma was conducted in vitro via equilibrium dialysis using HTDialysis (HTD) membrane plates. The top half of the plate was filled with 100 uL of Dubelco’s Phosphate Buffered Saline, pH 7.4 (DPBS). Compounds were diluted into plasma from each species (5 µM final concentration), which was aliquoted in triplicate to the ‘bottom half’ of the prepared HTD plate wells. The HTD plate was sealed and incubated for 6 hours at 37 °C. Following incubation, each well (both top and bottom halves) were transferred (20 µL) to the corresponding wells of a 96-shallow-well (V-bottom) plate. The daughter plates were then matrix-matched (DPBS side wells received equal volume of plasma, and plasma side wells received equal volume of DPBS), and extraction solution (120 µL; acetonitrile containing 50 nM carbamazepine as IS) was added to all wells of both daughter plates to precipitate protein and extract test article. The plates were then sealed and centrifuged (3500 rcf) for 10 minutes at ambient temperature. […]
The unbound fraction (f u) was calculated following the equation below, and mean values for each species were calculated from 3 replicates.
A similar approach was used to determine the degree of brain homogenate binding, which employed the same methodology and procedure with the following modifications: 1) a final compound concentration of 1 μM was used, 2) naïve rat brains were homogenized in DPBS (1:3 composition of brain: DPBS, w/w) using a Mini-Bead Beater™ machine in order to obtain brain homogenate, which was then treated in the same manner as the plasma samples in the previously described plasma protein binding assay. Fraction unbound for both plasma and brain samples was determined using Equation 4. […]
The diluted fraction unbound (fu2) in brain was calculated in the same manner by using brain homogenate rather than plasma. Undiluted fraction unbound for the brain was calculated using […]

[2] = Predicted hepatic clearance, rat hepatic microsomes; assay type: in vitro ADME
Experimental: (§1) Intrinsic clearance: Human or rat hepatic microsomes (0.5 mg/mL) and 1 µM test compound were incubated in 100 mM potassium phosphate pH 7.4 buffer with 3 mM MgCl2 at 37 °C with constant shaking. After a 5 min preincubation, the reaction was initiated by the addition of NADPH (1 mM). At selected time intervals (0, 3, 7, 15, 25, and 45 min), aliquots were taken and subsequently placed into a 96-well plate containing cold acetonitrile with internal standard (50 ng/mL carbamazepine). Plates were then centrifuged at 3000 rcf (4 °C) for 10 min, and the supernatant was transferred to a separate 96-well plate and diluted 1:1 with water for LC/MS/MS analysis. The in vitro half-life ( 1/2, min, Eq. 1), intrinsic clearance (CLint, mL/min/kg, Eq. 2), and subsequent predicted hepatic clearance (CLhep, mL/min/kg, Eq. 3) was determined employing the […]
(§2) where k represents the slope from linear regression analysis of the natural log percent remaining of a test compound as a function of incubation time […]
(§3) (2) CLint = in vitroT1/2 x mg microsomes x gram liver x kg body wt ascale-up factors: of 20 (human) or 45 (rat) […]
(§4) where Qh (hepatic blood flow, mL/min/kg) is 21 (human) or 70 (rat).
(§5) LC/MS/MS Bioanalysis of Samples from Plasma Protein Binding and Intrinsic Clearance […]
(§6) Samples were analyzed on a Thermo Electron TSQ Quantum Ultra triple quad mass spectrometer (San Jose, CA) via electrospray ionization (ESI) with two Themo Electron Accella pumps (San Jose, CA), and a Leap Technologies CTC PAL autosampler (Carrboro, NC). Analytes were separated by gradient elution on a dual column system with two Thermo Hypersil Gold (2.1 x 30 mm, 1.9 µm) columns (San Jose, CA) thermostated at 40 °C. HPLC mobile phase A was 0.1% formic acid in water and mobile phase B was 0.1% formic acid in acetonitrile. The gradient started […]
(§7) for 0.2 min; returned to 10% B in 0.1 min. The total run time was 1.3 min and the HPLC flow rate was 0.8 mL/min. […]

human M1 = target: T1, human M1 (Homo sapiens, UniProt P11229); experiment: Calcium mobilization assay, human M1 (agonist and PAM modes); assay type: cell-based; settings: for hM1 PAM AChmax (%) / hM1 Agonist AChmax (%): % ACh max
T1 sequence (P11229 1-460): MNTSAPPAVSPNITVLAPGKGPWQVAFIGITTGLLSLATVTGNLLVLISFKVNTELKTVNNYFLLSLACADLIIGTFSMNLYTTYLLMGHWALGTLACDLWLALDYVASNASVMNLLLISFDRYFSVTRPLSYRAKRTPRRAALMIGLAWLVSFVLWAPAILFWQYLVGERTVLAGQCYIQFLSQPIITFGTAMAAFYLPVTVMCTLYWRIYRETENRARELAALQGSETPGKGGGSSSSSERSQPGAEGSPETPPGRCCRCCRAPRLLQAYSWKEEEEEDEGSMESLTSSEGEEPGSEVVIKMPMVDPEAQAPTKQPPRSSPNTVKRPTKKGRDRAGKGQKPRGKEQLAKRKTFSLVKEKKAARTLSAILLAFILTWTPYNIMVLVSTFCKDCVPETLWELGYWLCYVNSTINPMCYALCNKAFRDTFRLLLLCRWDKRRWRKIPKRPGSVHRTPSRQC

[3] = Predicted hepatic clearance, human hepatic microsomes; assay type: in vitro ADME
Experimental: as §1, §2, §3, §4, §5, §6, §7

[4] = PAM mode, read-out: hM1 PAM EC50
[5] = agonist mode, read-out: hM1 Agonist EC50
[6] = agonist mode, read-out: human M1 agonism EC50
[7] = hM1 PAM EC50, PAM mode, read-out: hM1 PAM pEC50 (converted)

SMILES	fraction unbound at 6 h, 1 µM [1]	Predicted CLhep, rat [2]	hM1 PAM AChmax (%) (human M1; PAM mode)	EC50 (human M1; [4])	hM1 Agonist AChmax (%) (human M1; agonist mode)	EC50 (human M1; [5])	EC50 (human M1; [6])	EC50 (human M1; [7])	Predicted CLhep, human [3]
Cn1ccc(-c2ccc(Cc3cc(C(=O)NC4CCOCC4)nc4ccsc34)cc2)n1 [compound 12]	0.011	33 mL/min/kg	73%	149 nM	38%	3060 nM	3100 nM	132 nM	7.5 mL/min/kg
Cn1ccc2nc(C(=O)NC3CCOCC3)cc(Cc3ccc(-c4cc[nH]n4)cc3)c21 [compound 24]	0.025	44 mL/min/kg	73%	144 nM	36%	–	2100 nM	–	12.8 mL/min/kg
Cn1ccc(-c2ccc(Cc3cc(C(=O)NC4CCOCC4)nc4ccn(C)c34)cc2)n1 [compound 11]	0.038	38 mL/min/kg	80%	228 nM	24%	> 10000 nM	–	166 nM	12 mL/min/kg
